Drawing on US10787425B2, “Thiazolidinedione derivative and use thereof” (INDUSTRY-ACADEMIC COOPERATION FOUNDATION CHOSUN UNIVERSITY, priority 2016, dated 2020), this text covers Increment %, PGE2 concentration and IC50 for 22 compounds.

Each structure is given as a SMILES string.

For one test, the system named is A549 cells. Nature of the test: Measurement of PGE2 concentration in A549 cell medium (ELISA). The following applies: for Increment %: PGE2 concentration versus PBS control, 5 μM, 12 hours; for PGE2 concentration: inhibitor 5 μM, medium collected after 12 hours, ELISA. It is filed as cell-based, human. How it is done: A549 cells were subcultured in RPMI 1640 medium (containing+8% fetal bovine serum (FBS) and antibiotic-antimycotic (AA)) for one week, and then, inoculated in a 6-well plate at 2.5×10^5 cells/mL (5×10^5 cells/well) and cultured for 24 hours in a 5% CO2 incubator at a temperature of 37° C. A549 cells are adenocarcinomic human alveolar basal epithelial cells which are derived from lung tissues. When cells were grown to about 80% confluence, a 15-PGDH inhibitor in 1×PBS buffer was injected at a concentration of 5 μM. To compare the results, the same amount of 1×PBS buffer was injected into a negative control, and, the treated cells were cultured in 5% CO2 incubator. After 12 hours, the medium was collected and the collected medium was assayed to measure PGE2 concentration by using an ELISA Kit (Abcam) according to the manufacturer's instructions. The concentration may be expressed as an exact value by plotting the calibration curve by using the absorbance value after diluting the standard in the medium by concentration.

The target in the next test is 15-PGDH (Homo sapiens (Human), UniProt P15428). Briefly: 15-PGDH inhibitory activity (NADH at 340 nm). The format is biochemical. The note with it: concentration inhibiting 50% of 15-PGDH activity; purified 15-PGDH, 21 μM PGE2, 0.25 mM NAD+. How it is done:
The 15-PGDH cDNA plasmid containing the BamHI of the pGEX-2T expression vector and EcoRI restriction enzyme sites was transfected into E. coli BL-21 LysS by using conventional methods used in the art. Then, the transfected cells were cultured in an LB medium (500 ml) containing 50 μg/ml of ampicillin at a temperature of 37° C. and at a rate of 220 rpm until the OD600 reached 0.6. Then, isopropyl beta-D-thiogalactoxide (1 mM) was added and the cells were further cultured at the temperature of 25° C. for 12 hours. The cells were then centrifuged at the gravity of 4,000 g for 30 minutes at a temperature of 4° C. to collect a cell pellet. The cell pellet was dissolved in 20 ml of cell lysis buffer (containing 1×PBS buffer (pH 7.4): 1 mM EDTA and 0.1 mM DTT) and sonicated at a temperature of 4° C. for 14×10 s. The digested cells were centrifuged at the gravity of 4,000 g for 20 minutes at a temperature of 4° C. The supernatant was then slowly loaded onto a glutathione-sepharose 4B column equilibrated at a temperature of 4° C. with cell lysis buffer [containing 1×PBS buffer (pH 7.4), 1 mM EDTA, and 0.1 mM DTT]. Washing was performed thereon by using a dissolution buffer until the OD280 reached 0.005 or less. Then, 15-PGDH was eluted from the glutathione-sepharose 4B column at room temperature for 5 minutes by using an elution buffer [containing 50 mM Tris-HCl (pH 8.0), 10 mM reduced glutathione, 1 mM EDTA, and 0.1 mM DTT). The concentration of the purified enzyme was measured, and the purification level thereof was confirmed by SDS-PAGE.
That is, the cells were treated with a solution including 50 mM Tris-HCl (pH 7.5), 0.1 mM DTT, 0.25 mM (NAD+), 10 μg of purified 15-PGDH enzyme, 21 μM PGE2. and various concentrations (0.0001 μM to 64 μM) of the derivative compound according to the present disclosure. In this case, the total volume of the solution was 2 ml. Then, the absorbance of the reaction mixture was recorded at the wavelength of 340 nm. To measure the activity of the derivative compounds according to the present disclosure, which is an inhibitor of 15-PGDH, the average value of NADH absorbance at 340 nm at various concentrations was obtained from a standard curve.

Sequence of 15-PGDH (P15428 whole entry): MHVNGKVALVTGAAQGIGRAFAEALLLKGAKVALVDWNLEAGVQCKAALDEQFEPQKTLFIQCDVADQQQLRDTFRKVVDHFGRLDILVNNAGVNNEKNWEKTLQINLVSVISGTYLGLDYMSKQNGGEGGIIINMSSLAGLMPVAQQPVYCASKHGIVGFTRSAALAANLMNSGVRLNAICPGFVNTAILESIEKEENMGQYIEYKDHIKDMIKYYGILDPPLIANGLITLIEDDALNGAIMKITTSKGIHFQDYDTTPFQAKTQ

For the compound `COc1cc(/C=C2\SC(=O)NC2=O)ccc1OC(=O)CCCC1CCCCC1` [Compound 39, (Z)-4-((2,4-dioxothiazolidin-5-ylidene)methyl)-2-methoxyphenyl 4-cyclohexylbutanoate], in the test on A549 cells, the Increment % came out at 220.24% and the PGE2 concentration turned out to be 649.318 pg/mL. Also, the IC50 (in general, the concentration at which inhibition is half-maximal) against 15-PGDH was determined as 17.5 nM.

As to `COc1cc(/C=C2\SC(=O)NC2=O)ccc1OC(=O)CCCCC1CCCCC1` [Compound 40, (Z)-4-((2,4-dioxothiazolidin-5-ylidene)methyl)-2-methoxyphenyl 5-cyclohexylpentanoate], in the test with A549 cells, the Increment % came to 7.88% and the PGE2 concentration stood at 218.7373 pg/mL. Besides, on 15-PGDH, inhibition was half-maximal at 28.2 nM (IC50).

For the compound `COc1cc(/C=C2\SC(=O)NC2=O)ccc1OC(=O)c1ccccc1.O=C(O)c1ccccc1` [Compound 41, (Z)-4-((2,4-dioxothiazolidin-5-ylidene)methyl)-2-methoxyphenyl benzoate], in the test on A549 cells, the Increment % is −88.34% and the PGE2 concentration stood at 23.64 pg/mL. At 15-PGDH, this compound came in with an IC50 of 151 nM.

As for `COc1cc(/C=C2\SC(=O)NC2=O)ccc1OC(=O)Cc1ccccc1` [Compound 42, (Z)-4-((2,4-dioxothiazolidin-5-ylidene)methyl)-2-methoxyphenyl 2-phenylacetate], in the test on A549 cells, the Increment % was found to be 97.64% and the PGE2 concentration was 400.7345 pg/mL. Besides, at 15-PGDH, inhibition was half-maximal at 42.2 nM (IC50).

With `COc1cc(/C=C2\SC(=O)NC2=O)ccc1OC(=O)CCc1ccccc1` [Compound 43, (Z)-4-((2,4-dioxothiazolidin-5-ylidene)methyl)-2-methoxyphenyl 3-phenylpropanoate], in the test with A549 cells, the Increment % is listed as 113.27% and the PGE2 concentration amounted to 432.4258 pg/mL. In addition, the IC50 against 15-PGDH came to 28.6 nM.

As for `COc1cc(/C=C2\SC(=O)NC2=O)ccc1OC(=O)CCCc1ccccc1` [Compound 44, (Z)-4-((2,4-dioxothiazolidin-5-ylidene)methyl)-2-methoxyphenyl 4-phenylbutanoate], in the test on A549 cells, the Increment % is listed as 299.80% and the PGE2 concentration is 810.6337 pg/mL. Moreover, on 15-PGDH, inhibition was half-maximal at 23.9 nM (IC50).

For `COc1cc(/C=C2\SC(=O)NC2=O)ccc1OC(=O)CCCCc1ccccc1` [Compound 45, (Z)-4-((2,4-dioxothiazolidin-5-ylidene)methyl)-2-methoxyphenyl 5-phenylpentanoate], in the test with A549 cells, the Increment % was 78.78% and the PGE2 concentration came to 362.494 pg/mL. This compound yielded an IC50 at 15-PGDH of 38.9 nM.

As to `CCOc1cc(/C=C2\SC(=O)NC2=O)ccc1OC(=O)C1CC1` [Compound 46, (Z)-4-((2,4-dioxothiazolidin-5-ylidene)methyl)-2-ethoxyphenyl cyclopropanecarboxylate], in the test with A549 cells, the Increment % is given as 1.78% and the PGE2 concentration stood at 278.8555 pg/mL. At 15-PGDH, this compound had an IC50 of 2170 nM.

Turning to `CCOc1cc(/C=C2\SC(=O)NC2=O)ccc1OC(=O)C1CCC1` [Compound 47, (Z)-4-((2,4-dioxothiazolidin-5-ylidene)methyl)-2-ethoxyphenyl cyclobutanecarboxylate], in the test with A549 cells, the Increment % is on record as −32.43% and the PGE2 concentration was 185.1274 pg/mL. 1620 nM corresponded to half-maximal inhibition at 15-PGDH (IC50).

Turning to `CCOc1cc(/C=C2\SC(=O)NC2=O)ccc1OC(=O)C1CCCC1` [Compound 48, (Z)-4-((2,4-dioxothiazolidin-5-ylidene)methyl)-2-ethoxyphenyl cyclopentanecarboxylate], in the test on A549 cells, the Increment % is listed as −22.79% and the PGE2 concentration was found to be 211.539 pg/mL. On 15-PGDH, this compound came in with a 50% inhibitory concentration (IC50) of 1400 nM.

For the compound `CCOc1cc(/C=C2\SC(=O)NC2=O)ccc1OC(=O)CC1CCCC1` [Compound 49, (Z)-4-((2,4-dioxothiazolidin-5-ylidene)methyl)-2-ethoxyphenyl 2-cyclopentylacetate], in the test with A549 cells, the Increment % is 9.34% and the PGE2 concentration was 299.5683 pg/mL. The compound also showed an IC50 against 15-PGDH of 128 nM.

As to `CCOc1cc(/C=C2\SC(=O)NC2=O)ccc1OC(=O)CCC1CCCC1` [Compound 50, (Z)-4-((2,4-dioxothiazolidin-5-ylidene)methyl)-2-ethoxyphenyl 3-cyclopentylpropanoate], in the test with A549 cells, the Increment % is listed as 89.67% and the PGE2 concentration stood at 519.6554 pg/mL. In addition, on 15-PGDH, the IC50 turned out to be 29 nM.

Turning to `CCOc1cc(/C=C2\SC(=O)NC2=O)ccc1OC(=O)C1CCCCC1` [Compound 51, (Z)-4-((2,4-dioxothiazolidin-5-ylidene)methyl)-2-ethoxyphenyl cyclohexanecarboxylate], in the test on A549 cells, the Increment % was found to be 3.34% and the PGE2 concentration is 283.1296 pg/mL. At 15-PGDH, this compound returned an IC50 of 549 nM.

As for `CCOc1cc(/C=C2\SC(=O)NC2=O)ccc1OC(=O)CC1CCCCC1` [Compound 52, (Z)-4-((2,4-dioxothiazolidin-5-ylidene)methyl)-2-ethoxyphenyl 2-cyclohexylacetate], in the test with A549 cells, the Increment % is −18.49% and the PGE2 concentration amounted to 223.32 pg/mL. Also, 32.8 nM corresponded to half-maximal inhibition against 15-PGDH (IC50).

As for `CCOc1cc(/C=C2\SC(=O)NC2=O)ccc1OC(=O)CCCC1CCCCC1` [Compound 54, (Z)-4-((2,4-dioxothiazolidin-5-ylidene)methyl)-2-ethoxyphenyl 4-cyclohexylbutanoate], in the test on A549 cells, the Increment % was 202.57% and the PGE2 concentration was 828.9774 pg/mL. Also, inhibition against 15-PGDH was half-maximal at 23.8 nM (IC50).

For the compound `CCOc1cc(/C=C2\SC(=O)NC2=O)ccc1OC(=O)CCCCC1CCCCC1` [Compound 55, (Z)-4-((2,4-dioxothiazolidin-5-ylidene)methyl)-2-ethoxyphenyl 5-cyclohexylpentanoate], in the test with A549 cells, the Increment % is given as 7.8% and the PGE2 concentration turned out to be 295.349 pg/mL. Also, on 15-PGDH, the 50% inhibitory concentration (IC50) came to 34.4 nM.

On to `CCOc1cc(/C=C2\SC(=O)NC2=O)ccc1OC(=O)c1ccccc1.O=C(O)c1ccccc1` [Compound 56, (Z)-4-((2,4-dioxothiazolidin-5-ylidene)methyl)-2-ethoxyphenyl benzoate], for which, in the test with A549 cells, the Increment % is −31.65% and the PGE2 concentration was 108.7675 pg/mL. The compound further returned an IC50 at 15-PGDH of 298 nM.

With `CCOc1cc(/C=C2\SC(=O)NC2=O)ccc1OC(=O)Cc1ccccc1` [Compound 57, (Z)-4-((2,4-dioxothiazolidin-5-ylidene)methyl)-2-ethoxyphenyl 2-phenylacetate], in the test on A549 cells, the Increment % is −17.46% and the PGE2 concentration was found to be 131.3485 pg/mL. This compound also came in with an IC50 against 15-PGDH of 118 nM.

Consider `CCOc1cc(/C=C2\SC(=O)NC2=O)ccc1OC(=O)CCc1ccccc1` [Compound 58, (Z)-4-((2,4-dioxothiazolidin-5-ylidene)methyl)-2-ethoxyphenyl 3-phenylpropanoate], for which, in the test with A549 cells, the Increment % is given as 7.97% and the PGE2 concentration came to 171.8161 pg/mL. The IC50 at 15-PGDH turned out to be 94.3 nM.

Consider `CCOc1cc(/C=C2\SC(=O)NC2=O)ccc1OC(=O)CCCCc1ccccc1` [Compound 60, (Z)-4-((2,4-dioxothiazolidin-5-ylidene)methyl)-2-ethoxyphenyl 5-phenylpentanoate], for which, in the test with A549 cells, the Increment % was 88.87% and the PGE2 concentration was 300.5549 pg/mL. The compound also returned an IC50 at 15-PGDH of 58.4 nM.

With `O=C1NC(=O)/C(=C/c2ccc(OC(=O)C3CC3)cc2)S1` [Compound 61, (Z)-4-((2,4-dioxothiazolidin-5-ylidene)methyl)phenyl cyclopropanecarboxylate], in the test on A549 cells, the Increment % is given as −99.97% and the PGE2 concentration was 0.04774 pg/mL. Besides, the IC50 against 15-PGDH came to 1410 nM.

Consider `O=C1NC(=O)/C(=C/c2ccc(OC(=O)C3CCCC3)cc2)S1` [Compound 63, (Z)-4-((2,4-dioxothiazolidin-5-ylidene)methyl)phenyl cyclopentanecarboxylate], for which, in the test on A549 cells, the Increment % came to 49.33% and the PGE2 concentration was 237.6336 pg/mL. The same compound showed an IC50 against 15-PGDH of 179 nM.
